Assay results taken from patent US12247008B2, “Multi-aziridine compound” (COVESTRO (NETHERLANDS) B.V., priority 2020, dated 2025).

Test system: Rtkn-GFP
Assay: ToxTracker genotoxicity assay, Rtkn-GFP reporter induction

`CC1CN1CC(C)(C)OC(=O)NCCCCCCn1c(=O)n(CCCCCCNC(=O)OC(C)(C)CN2CC2C)c(=O)n(CCCCCCNC(=O)OC(C)(C)CN2CC2C)c1=O` (stereo not drawn) [Ex. 1] was tested, and the Rtkn induction level (with S9 rat liver extract, 3 h exposure and 24 h recovery, at 10% cytotoxicity) was 1.0 fold, the Rtkn induction level (with S9 rat liver extract, 3 h exposure and 24 h recovery, at 25% cytotoxicity) was 1.1 fold and the Rtkn induction level (with S9 rat liver extract, 3 h exposure and 24 h recovery, at 50% cytotoxicity) was 1.3 fold. For the same compound, the Rtkn induction level (without S9 rat liver extract, 24 h exposure, at 10% cytotoxicity) was 1.1 fold, the Rtkn induction level (without S9 rat liver extract, 24 h exposure, at 25% cytotoxicity) was 1.1 fold and the Rtkn induction level (without S9 rat liver extract, 24 h exposure, at 50% cytotoxicity) was 1.3 fold.
